# Source: patent publication US6235707A, “Anticoagulant peptidyl-arginine aldehyde derivatives” (Gyogyszerkutato Intezet Kft., priority 1996, dated 2001)
# Read-outs that look alike come from different tables or passages of the source. Square brackets hold non-standard residues; d marks the D form. Peptide text beside a SMILES is read from it. * marks the point of attachment. dCba = N[C@H](CC1CCC1)C(=O)O; Moc = COC(=O)*
# Assays:
# citrate plasma [1] = assay: activated partial thromboplastin time (APTT) plasma clotting test; format: biochemical
# Protocol: (§1) Anticoagulant activity (i.e. inhibition of the proteolytic reactions in the process) is measured by anticoagulant tests, e.g. in the thrombin time (TT), activated partial thromboplastin time (APTT) and prothrombin time (PT) tests [E. J. W. Bovie et al., Mayo Clinic Laboratory Manual of Haemostasis; W. B. Saunders Co., Philadelphia (1971)]. Plasma, inhibited in spontaneous coagulation, e.g. citrate-plasma, is made to coagulate and the required coagulation time is measured. Upon the action of anticoagulants the coagulation time is prolonged proportionally to the inhibition of the reaction(s) in the process. The anticoagulant effect can be characterised by the substance concentration required to prolong the coagulation time twofold compared to the control (IC50). The effect of anticoagulants on individual coagulant proteases is measured by the amidolytic method [R. Lottenberg et al., Methods in Enzymol. 80, 341 (1981); G. Cleason, Blood Coagulation and Fibrinolysis 5, 411 (1994)]. The isolated active factor (e.g. thrombin, fXa) and its chromogen or fluorogen peptide-amide substrate are reacted in the presence or absence of the inhibitor, resp. The enzyme inhibiting action is characterised by the inhibitory constant (IC50) measured during amidolysis.
# (§2) In the TT test coagulation is initiated by the thrombin added to the citrate plasma. In the system 22 pmol/ml of thrombin is functioning and its inhibition can be measured on the fibrinogen (one of the natural substrates of thrombin) in the presence of plasma components. In the APTT and PT tests the full coagulation process takes place. Depending on the activator fX is activated either by the extrinsic or the intrinsic pathway. The generated fXa activates prothrombin to thrombin which, in turn, triggers plasma coagulation. The coagulation time is prolonged if the enzymes or one of them is inhibited by the inhibitor. In the APTT and PT tests at most 40 pmol/ml Xa can be generated (this is the full amount of factor X present in both systems) while 150 pmol/ml (APTT) and 350 pmol/ml (PT) of thrombin are generated [B. Kaiser et al., Thromb. Res. 65, 157 (1992)].
# (§3) The in vitro anticoagulant effects of the compounds of general formula (I) was measured by the prothrombin time (PT), activated partial thromboplastin time (APTT) and thrombin time (TT) tests [D. Bagdy et al., Thromb. Haemost. 67, 325 (1992)]. The fxa-inhibiting effect of the compounds was also determined using the Bz-Ile-Glu-Gly-Arg-pNA chromogen substrate (see method M6).
# citrate plasma [2] = assay: prothrombin time (PT) plasma clotting test; format: biochemical
# Protocol: as §1, §2, §3
# isolated human fXa = molecular target: T1, isolated human fXa (Homo sapiens, UniProt P00742); assay: fXa inhibition in solution, amidolytic method on Bz-Ile-Glu-Gly-Arg-pNA chromogen substrate (Method M6); format: biochemical; details: for IC50: isolated human fXa, Bz-Ile-Glu-Gly-Arg-pNA
# T1 construct: The isolated active factor (e.g. thrombin, fXa) and its chromogen or fluorogen peptide-amide substrate are reacted; purchased SIGMA
# Protocol: as §1, §3
# Determination of Factor Xa Inhibition in Solution on a 96-well Microtitre Plate
# a) By means of phosphate buffer (0.1M sodium phosphate and 0.05M sodium chloride, pH=7.4) 1.3 E/ml solution is prepared from human factor Xa (SIGMA), and 0.1-1.0-10 and 100 μg/ml solutions from the peptide inhibitors. The Bz-Ile-Glu-Gly-Arg-pNA substrate is used in distilled water solution ([…]).
# b) From the control and the peptide inhibitor solutions (3 parallel samples of each concentration) 30-30 μl aliquots are placed into the wells. 30 μl of factor Xa, 90 μl of buffer and 150 μl of substrate are added to the peptide solution and the extinction is determined after 10 min. at 405 nm. Thereafter the steps are the same as in M2/c.
# thrombin = thrombin (Homo sapiens, UniProt P00734); assay: thrombin time (TT) plasma clotting test; format: biochemical
# Protocol: as §1, §2, §3
# plasmin (PL) = plasmin (PL) (Homo sapiens, UniProt P00747); assay: fibrin-plate method, plasmin; format: biochemical; details: for IC50: fibrin plate, hydrolysed area reduced to 50% of control; for B: relative efficiency, PL: related to the activity of C1 (1/IC50 = 1)
# Description: (§4) The inhibitory effect of the new compounds of the invention on plasmin (PL) as well as on plasmin formation induced by tissue plasminogen activator (tPA) and urokinase (UK) was examined by the fibrin-plate method [D. Bagdy et al.: Thromb. Haemost. 67, 325 (1992)]. Compounds C1 and C5 served as controls. […] V. Jackson et al.: J. Cardiovasc. Pharmacol. 21, 587 (1993))]. In Table 4 the results obtained with the new compounds 1 and 2 as well as those with controls C1 and C5 are presented as an example.
# [3] = molecular target: T2, fibrin gel-bound thrombin (Homo sapiens, UniProt P00734); assay: inhibition of fibrin gel-bound thrombin (Methods M4, M5); format: biochemical; details: human fibrinogen clotted with human thrombin; Tos-Gly-Pro-Arg-pNA substrate
# T2 construct: purchased SIGMA
# Protocol: (§5) Plasma-clot was obtained by recalcificating platelet-rich human plasma, and fibrin gel by clotting human fibrinogen with human thrombin. For the activity measures of fXa and thrombin Z-D-Arg-Gly-Arg-pNA or Tos-Gly-Pro-Arg-pNA substrates were used in agreement with Methods M1-M3.
# Preparation of Fibrin Clots
# a) To each reaction vessel 200 μl of human fibrinogen (SIGMA), 25 μl of 25 NIH/E/ml human thrombin (SIGMA) and 40 μl of 100 mM CaCl2 solution is placed and the mixtures are allowed to stand for 1 hour at 20-22° C. The fibrin clots are washed with isotonic NaCl-solution (3×2 ml) under gentle stirring to remove traces of thrombin and sedimented for 5 min. The effectiveness of the washing can be checked by the method M1/c.
# Determination of Inhibition of Fibrin-clot Bound Thrombin
# a) 0.1-1.0-10 and 100 μg/ml solutions are made from the peptide inhibitors with Hepes/NaCl buffer (0.001 M Hepes and 0.1 M NaCl, pH=7.4).
# b) Measurements are continued according to M3/b.
# clot-bound thrombin = molecular target: T3, clot-bound thrombin (Homo sapiens, UniProt P00734); assay: inhibition of plasma clot-bound thrombin (Methods M1, M3); format: biochemical; details: clot from platelet-rich human plasma; Tos-Gly-Pro-Arg-pNA substrate
# T3 construct: from tissue; host or cells: clot of recalcified human platelet-rich plasma
# Protocol: as §5
# Preparation of Clots from Human Plasma
# a) Platelet-rich plasma is prepared by centrifuging a 9:1 mixture of human blood and 3.8% sodium citrate solution for 5 min. at 240×g.
# b) 200 μl platelet-rich plasma and 80 μl 40 mM CaCl2 solution are allowed to stand at room temperature for 1 hour. The thus-formed clot is washed with 6×2 ml of 0.9% NaCl solution with gentle stirring to remove the residual enzymes (thrombin and factor Xa). The washing medium is assayed for thrombin-like activity as follows:
# c) To 400 μl of washing medium 100 μl of 1 mM Tos-Gly-Pro-Arg-pNA substrate solution is added, the mixture is incubated for 30 min at 37° C., then the reaction is stopped with 100 μl of 50% acetic acid. From this mixture 150 μl aliquots are applied onto a 96-well microtitre plate and the extinction coefficients are measured at 405 nm (ELISA READER SLT Laborinstrument GmbH, Austria). In case of efficient washing the extinction coefficient is smaller than 5% of that of the control.
# Determination of the Inhibition of Clot-bound Thrombin
# a) Solutions are made from the peptide inhibitors according to Method M2/a.
# b) After draining off the washing medium the clots (Method M1) are mixed with 400 μl of peptide solution (3 parallel samples with each concentration), then the samples are incubated for 5 min. at 37° C. together with a separate 400 μl buffer serving as control. Then 100 μl […] 1 mM Tos-Gly-Pro-Arg-pNA substrate solution is added and the incubation continued for further 30 min. at 37° C. The experiment is continued according to M2/c.
# [4] = molecular target: tissue plasminogen activator (tPA) (Homo sapiens, UniProt P00750); assay: fibrin-plate method, plasmin formation induced by tPA; format: biochemical; details: for IC50: fibrin plate, hydrolysed area reduced to 50% of control; for B: relative efficiency, tPA: related to the activity of C1 (1/IC50 = 1)
# Description: as §4
# urokinase (UK) = urokinase (UK) (Homo sapiens, UniProt P00749); assay: fibrin-plate method, plasmin formation induced by urokinase; format: biochemical; details: for IC50: fibrin plate, hydrolysed area reduced to 50% of control; for B: relative efficiency, UK: related to the activity of C1 (1/IC50 = 1)
# Description: as §4
# [5] = C. V. Jackson et al. 1993; cited from earlier work
# [6] = Table 3, twofold prolongation compared to control, read-out: A: anticoagulant IC50, APTT
# [7] = Table 3, twofold prolongation compared to control, read-out: A: anticoagulant IC50, PT
# [8] = Table 3, read-out: B: fXa inhibiting IC50
# [9] = Table 3, twofold prolongation compared to control, read-out: A: anticoagulant IC50, TT
# [10] = Table 2, concentration prolonging clotting time twofold, read-out: A: anticoagulation IC50, APTT
# [11] = Table 2, concentration prolonging clotting time twofold, read-out: A: anticoagulation IC50, PT
# [12] = Table 2, read-out: B: fXa inhibiting effect IC50
# [13] = Table 2, concentration prolonging clotting time twofold, read-out: A: anticoagulation IC50, TT
# Chain of tissue plasminogen activator (tPA) (P00750 36-562, species assumed): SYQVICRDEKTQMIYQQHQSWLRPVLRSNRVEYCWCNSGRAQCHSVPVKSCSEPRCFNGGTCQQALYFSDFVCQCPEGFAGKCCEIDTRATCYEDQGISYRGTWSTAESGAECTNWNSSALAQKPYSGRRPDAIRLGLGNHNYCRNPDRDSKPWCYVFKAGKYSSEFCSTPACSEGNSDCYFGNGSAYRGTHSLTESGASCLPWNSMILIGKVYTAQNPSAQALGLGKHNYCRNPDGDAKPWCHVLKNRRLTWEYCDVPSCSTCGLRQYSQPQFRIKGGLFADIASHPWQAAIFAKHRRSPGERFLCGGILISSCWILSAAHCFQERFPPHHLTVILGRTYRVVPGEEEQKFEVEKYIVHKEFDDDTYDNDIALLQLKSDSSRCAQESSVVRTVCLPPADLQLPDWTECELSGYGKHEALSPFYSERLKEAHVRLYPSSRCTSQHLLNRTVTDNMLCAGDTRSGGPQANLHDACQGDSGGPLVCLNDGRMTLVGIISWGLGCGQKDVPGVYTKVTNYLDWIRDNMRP
# T1 sequence (P00742 235-488 limits assumed): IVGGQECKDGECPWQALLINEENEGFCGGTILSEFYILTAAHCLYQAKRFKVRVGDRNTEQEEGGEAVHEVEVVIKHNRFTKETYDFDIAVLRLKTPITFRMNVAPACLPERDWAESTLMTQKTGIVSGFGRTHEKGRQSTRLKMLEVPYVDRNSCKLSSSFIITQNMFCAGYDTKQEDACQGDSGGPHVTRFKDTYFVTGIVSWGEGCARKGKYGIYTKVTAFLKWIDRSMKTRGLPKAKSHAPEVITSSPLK
# T1 sequence (P00742 41-179 partner limits assumed): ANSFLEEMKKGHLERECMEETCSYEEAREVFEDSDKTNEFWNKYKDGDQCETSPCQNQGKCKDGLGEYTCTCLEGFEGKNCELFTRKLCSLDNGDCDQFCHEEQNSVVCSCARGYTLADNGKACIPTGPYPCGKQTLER
# Chain of plasmin (PL) (P00747 581-810 limits assumed, species assumed): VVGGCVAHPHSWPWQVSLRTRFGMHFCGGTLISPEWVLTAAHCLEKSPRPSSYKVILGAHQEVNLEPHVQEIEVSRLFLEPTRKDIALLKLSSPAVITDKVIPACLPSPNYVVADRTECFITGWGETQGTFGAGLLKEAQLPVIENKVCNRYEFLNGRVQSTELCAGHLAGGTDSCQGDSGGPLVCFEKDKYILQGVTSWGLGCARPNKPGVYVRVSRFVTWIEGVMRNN
# Chain of plasmin (PL) (P00747 97-580 partner limits assumed, species assumed): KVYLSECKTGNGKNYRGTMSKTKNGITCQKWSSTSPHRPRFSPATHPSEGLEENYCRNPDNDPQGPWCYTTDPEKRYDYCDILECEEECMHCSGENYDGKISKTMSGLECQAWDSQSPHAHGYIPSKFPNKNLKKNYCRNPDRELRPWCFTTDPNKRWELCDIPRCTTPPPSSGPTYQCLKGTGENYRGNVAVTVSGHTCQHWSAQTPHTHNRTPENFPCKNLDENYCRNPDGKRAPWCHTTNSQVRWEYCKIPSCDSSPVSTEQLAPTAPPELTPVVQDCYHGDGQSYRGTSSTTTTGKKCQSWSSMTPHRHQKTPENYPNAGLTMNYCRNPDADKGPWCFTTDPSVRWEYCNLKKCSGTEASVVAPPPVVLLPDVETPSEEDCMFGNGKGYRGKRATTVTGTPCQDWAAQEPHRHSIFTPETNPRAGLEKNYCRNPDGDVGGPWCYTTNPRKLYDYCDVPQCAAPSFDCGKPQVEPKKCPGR
SMILES,IC50 (citrate plasma [1]; [6]),IC50 (citrate plasma [2]; [7]),IC50 (isolated human fXa; [8]),IC50 (thrombin; [9]),"B: relative efficiency, PL (plasmin (PL))","B: relative efficiency, tPA [4]","B: relative efficiency, UK (urokinase (UK))",further results
"CCOC(=O)NC(CC1CCC1)C(=O)N1CCC[C@H]1C(=O)N[C@H](C=O)CCCNC(=N)N (mixture of isomers) [Example C8, Ethoxycarbonyl-3-cyclobutyl-DL-alanyl-L-prolyl-L-arginine aldehyde]",500 nM,1490 nM,68 nM,130 nM,,,,
"CCOC(=O)NC(CC1CCCC1)C(=O)N1CCC[C@H]1C(=O)N[C@H](C=O)CCCNC(=N)N (mixture of isomers) [Example C9, Ethoxycarbonyl-3-cyclopentyl-DL-alanyl-L-prolyl-L-arginine aldehyde]",480 nM,1900 nM,43 nM,260 nM,,,,
"CCOC(=O)NC(C(=O)N1CCC[C@H]1C(=O)N[C@H](C=O)CCCNC(=N)N)C1CCC1 (mixture of isomers) [Example C10, Ethoxycarbonyl-DL-cyclobutyl-glycyl-L-prolyl-L-arginine aldehyde]",770 nM,6150 nM,82 nM,880 nM,,,,
"COC(=O)N[C@H](CC1CCC1)C(=O)N1CCC[C@H]1C(=O)N[C@H](C=O)CCCNC(=N)N [Example 2, methoxycarbonyl-3-cyclobutyl-D-alanyl-L-prolyl-L-arginine aldehyde] (Moc-[dCba]-Pro-Arg-aldehyde)",250 nM,1120 nM,388 nM,110 nM,0.23,1.4,0.5,"IC50 (plasmin (PL)): 235000 nM; activity against PL, times lower than that of compound C5 (plasmin (PL); text b147, first of three enzymes): 3.2 times; IC50 [3]: 640 nM; IC50 (clot-bound thrombin): 680 nM; IC50 [4]: 92000 nM; activity against tPA, times lower than that of compound C5 ([4]; text b147, second of three enzymes): 4.5 times; IC50 (urokinase (UK)): 153000 nM; activity against UK, times lower than that of compound C5 (urokinase (UK); text b147, third of three enzymes): 39 times"
"CCOC(=O)N[C@H](CC1CCCC1)C(=O)N1CCC[C@H]1C(=O)N[C@H](C=O)CCCNC(=N)N [Example 4, Ethoxycarbonyl-3-cyclopentyl-D-alanyl-L-prolyl-L-arginine aldehyde]",240 nM,1410 nM,27 nM,100 nM,0.55,3.5,1.8,IC50 (plasmin (PL)): 98000 nM; IC50 [3]: 670 nM; IC50 (clot-bound thrombin): 490 nM; IC50 [4]: 38000 nM; IC50 (urokinase (UK)): 46000 nM
"CC(C)(C)OC(=O)N[C@H](Cc1ccccc1)C(=O)N1CCC[C@H]1C(=O)N[C@H](C=O)CCCNC(=N)N [Example C5, BOC-D-Phe-Pro-Arg-H]",,,,,4.5,22.0,27.3,"IC50 (citrate plasma [1]; [10]): 760 nM; IC50 (citrate plasma [2]; [11]): 2270 nM; antifibrinolytic effect in vivo [5]: well detectable; IC50 (isolated human fXa; [12]): 910 nM; fXa IC50, times lower than C1 (isolated human fXa; text b89): 10 times; IC50 (thrombin; [13]): 200 nM"
"CCOC(=O)N[C@H](Cc1ccccc1)C(=O)N1CCC[C@H]1C(=O)N[C@H](C=O)CCCNC(=N)N [Example C6, Ethoxycarbonyl-3-phenyl-D-alanyl-L-prolyl-L-arginine aldehyde]",380 nM,1910 nM,917 nM,130 nM,,,,
"COC(=O)N[C@H](Cc1ccccc1)C(=O)N1CCC[C@H]1C(=O)N[C@H](C=O)CCCNC(=N)N [Example C7, Methoxycarbonyl-3-phenyl-D-alanyl-L-prolyl-L-arginine aldehyde]",,,,,,,,IC50 (citrate plasma [1]; [10]): 290 nM; IC50 (citrate plasma [2]; [11]): 1960 nM; IC50 (isolated human fXa; [12]): 130 nM; IC50 (thrombin; [13]): 200 nM
